Test systems include A498 renal; HCT-15 colon; IGROV1 ovarian; M14 melanoma; OVCAR-3 ovarian; SF-295 CNS; SK-MEL-2 melanoma; SNB-75 CNS; SR leukemia; U251 CNS.
Experiment in all cases: NCI anticancer screen, dose series, 48 h

Several values for one entry are separate records, joined by “and”; a condition that tells them apart may be missing. Equal entries are not always repeated.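 Test compounds were applied to cells in 96-well plates for 48 hours at 5 doses. Abbreviation: GI50, concentration required for 50% inhibition of growth. Definition used: TGI = concentration required for complete inhibition of growth.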

Turning to `N#CS.N=C=S.N=C=S.[Cu+2].[NH2-].[NH2-].[NH2-].[NH2-].c1ccc2ncccc2c1`, the GI50 in the experiment on A498 renal is 28.4 µM; with HCT-15 colon, greater than 100 µM; with IGROV1 ovarian, 55.7 µM; in the experiment with M14 melanoma, greater than 100 µM; in the experiment on OVCAR-3 ovarian it was 21.3 µM; in the experiment on SF-295 CNS, 17.7 µM. The GI50 was greater than 100 µM in the experiment on SK-MEL-2 melanoma, 21 µM in the experiment with SNB-75 CNS, greater than 100 µM in the experiment with SR leukemia and 20.1 µM with U251 CNS. The TGI was 51 µM with A498 renal; greater than 100 µM in the experiment on HCT-15 colon; greater than 100 µM in the experiment on IGROV1 ovarian; greater than 100 µM in the experiment with M14 melanoma; 41.8 µM in the experiment on OVCAR-3 ovarian; 37 µM in the experiment on SF-295 CNS. For the same molecule, the TGI in the experiment on SK-MEL-2 melanoma was greater than 100 µM; in the experiment on SNB-75 CNS it was 49.9 µM; in the experiment on SR leukemia, greater than 100 µM; with U251 CNS, 38.1 µM.
For `CC(C)(C)OC(=O)NC(CO)c1cccc(OCc2ccccc2)c1` (stereo not given), the TGI with A498 renal, in the experiment with HCT-15 colon, with IGROV1 ovarian, in the experiment on M14 melanoma, with OVCAR-3 ovarian and with SF-295 CNS was greater than 100 µM each time. The TGI in the experiment with SK-MEL-2 melanoma, in the experiment on SNB-75 CNS, in the experiment with SR leukemia and in the experiment on U251 CNS was greater than 100 µM in each case.
As for `O=c1c2ccccc2c2ccccc2c(=O)n1Cc1ccc2c(c1)OCO2`, the TGI with A498 renal, with HCT-15 colon, in the experiment with IGROV1 ovarian, with M14 melanoma, with OVCAR-3 ovarian and with SF-295 CNS was greater than 100 µM in each case. In addition, the TGI in the experiment with SK-MEL-2 melanoma is greater than 80.2 µM; with SNB-75 CNS, greater than 93.6 µM; in the experiment with SR leukemia it was 84.5 µM; in the experiment with U251 CNS, greater than 100 µM.
Regarding `CCN(CC)CCNc1cc(-c2cccc(OC(F)(F)F)c2)nc2ccc(N3CCCC3)cc12`, the GI50 in the experiment on A498 renal is 1.61 µM and 1.82 µM and 3.42 µM; in the experiment on HCT-15 colon it was 1.46 µM and 1.38 µM and 1.73 µM; in the experiment on IGROV1 ovarian, 1.34 µM and 1.41 µM and 1.46 µM; in the experiment with M14 melanoma, 1.6 µM and 1.82 µM and 1.86 µM; in the experiment with OVCAR-3 ovarian, 1.82 µM and 1.83 µM and 1.9 µM; with SF-295 CNS, 1.63 µM and 1.73 µM and 1.92 µM. For the same molecule, the GI50 in the experiment on SK-MEL-2 melanoma was 1.61 µM and 1.87 µM and 1.9 µM; in the experiment with SNB-75 CNS, 1.79 µM and 1.74 µM; in the experiment on SR leukemia, 0.418 µM and 0.462 µM; with U251 CNS, 1.54 µM and 1.55 µM and 1.71 µM. Further, the TGI in the experiment on A498 renal is 6.15 µM and 3.44 µM and 14.9 µM; with HCT-15 colon, 3.17 µM and 2.84 µM and 3.71 µM; with IGROV1 ovarian it was 2.87 µM and 3.04 µM and 3.05 µM; in the experiment on M14 melanoma, 3.12 µM and 3.51 µM and 3.63 µM; in the experiment on OVCAR-3 ovarian it was 4.11 µM and 3.77 µM and 4.41 µM; in the experiment on SF-295 CNS, 3.23 µM and 3.36 µM and 3.79 µM. Besides, the TGI was 3.3 µM and 3.49 µM and 3.61 µM with SK-MEL-2 melanoma; 4.29 µM and 5.78 µM with SNB-75 CNS; 2.12 µM and 2.26 µM in the experiment with SR leukemia; 3.1 µM and 2.95 µM and 3.35 µM with U251 CNS.
As for `COc1cc(-c2ncn(/C=C\C(=O)OC(C)C)n2)cc(C(F)(F)F)c1`, the GI50 is 0.0364 µM and < 0.0144 µM with A498 renal; 0.0715 µM and 0.0543 µM in the experiment on HCT-15 colon; 0.503 µM and 0.171 µM in the experiment with IGROV1 ovarian; 0.228 µM and 0.35 µM in the experiment with M14 melanoma; 0.0406 µM and 0.0353 µM with OVCAR-3 ovarian; 0.0891 µM and 0.196 µM in the experiment on SF-295 CNS. Moreover, the GI50 with SK-MEL-2 melanoma was 0.0676 µM and 0.0501 µM; with SNB-75 CNS, 0.0748 µM and 0.121 µM; in the experiment with SR leukemia, 0.0354 µM; in the experiment on U251 CNS, 0.0335 µM and 0.0683 µM. Besides, the TGI is 0.673 µM and 0.0916 µM in the experiment on A498 renal; 7.93 µM and 6.39 µM in the experiment on HCT-15 colon; 15.8 µM and 15.6 µM in the experiment on IGROV1 ovarian; 4.74 µM and 14.5 µM in the experiment with M14 melanoma; 1.29 µM and 0.857 µM with OVCAR-3 ovarian; 14.1 µM and 11.8 µM in the experiment with SF-295 CNS. The TGI in the experiment with SK-MEL-2 melanoma is 1.53 µM and 0.489 µM; in the experiment on SNB-75 CNS, 0.999 µM and 0.904 µM; with SR leukemia, 14.3 µM and > 100 µM; in the experiment with U251 CNS it was 5.24 µM and 11.4 µM.
For `N#CCC(=O)N/N=C(\C(=O)Nc1ccc(Cl)c(Cl)c1)C1CN(c2ccccc2)N=C1N` (stereo not given), the TGI with A498 renal, in the experiment with HCT-15 colon, in the experiment with IGROV1 ovarian, in the experiment on M14 melanoma, in the experiment on OVCAR-3 ovarian and in the experiment with SF-295 CNS was greater than 100 µM in each case. Moreover, the TGI in the experiment with SK-MEL-2 melanoma, with SNB-75 CNS, in the experiment with SR leukemia and in the experiment on U251 CNS was greater than 100 µM each time.
Regarding `O=c1oc(=O)c2oc3ccccc3oc1=2`, the TGI in the experiment with A498 renal, in the experiment with HCT-15 colon, in the experiment on IGROV1 ovarian, with M14 melanoma, with OVCAR-3 ovarian and in the experiment with SF-295 CNS was greater than 100 µM each time. The TGI in the experiment with SK-MEL-2 melanoma, in the experiment on SNB-75 CNS, in the experiment on SR leukemia and with U251 CNS was greater than 100 µM throughout.
On to `C=CN(C)S(C)(=O)=O`, for which the GI50 in the experiment on A498 renal, in the experiment with HCT-15 colon, in the experiment on IGROV1 ovarian, in the experiment on M14 melanoma, with OVCAR-3 ovarian and with SF-295 CNS was greater than 100 µM in each case. The GI50 in the experiment on SK-MEL-2 melanoma, in the experiment on SNB-75 CNS, in the experiment on SR leukemia and with U251 CNS was greater than 100 µM in each case. The TGI in the experiment with A498 renal, with HCT-15 colon, with IGROV1 ovarian, in the experiment with M14 melanoma, with OVCAR-3 ovarian and in the experiment on SF-295 CNS was greater than 100 µM each time. Further, the TGI in the experiment with SK-MEL-2 melanoma, with SNB-75 CNS, with SR leukemia and with U251 CNS was greater than 100 µM each time.

Values taken from PubChem BioAssay (NCI).
